This is an account of results in US10660967B2, “Curcumin conjugates and methods of use thereof” (priority 2016, dated 2020).

SMILES strings stand for the structures. Like-named read-outs stand apart in the source and are kept apart here.

Data set [1] has as its system Streptococcus pyogenes ATCC19615. As to the kind of experiment: Antimicrobial MIC, agar dilution. A general note: In agar dilution, organisms are placed on agar that contains the substance at set levels.
Data set [2] deals with Pseudomonas aeruginosa ATCC27853. As to the kind of experiment: Antimicrobial MIC, agar dilution.
Data set [3] relates to MCF7 (breast) carcinoma cell line. As to the kind of experiment: Anti-tumor properties, MTT. Format: cell-based. The settings on record: Homo sapiens; for activity at 100 µM: read-out: Percentage growth of tumor cell lines treated with the tested compounds (±SD). Summed up: (§1)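 Cells seeded at 10×10^3 per well for 24 h, then exposed to compound in serum-free medium (final up to 100 μM, 0.5% DMSO vehicle) for 72 h in triplicate. Viability by MTT reduction (4 h, SDS solubilised), absorbance 595 nm/ref 620 nm; IC50 from survival curves.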

Data set [4] has as its system HCT116 (colon) carcinoma cell line. As to the kind of experiment: Anti-tumor properties, MTT. The settings on record: Homo sapiens, read-out: Percentage growth of tumor cell lines treated with the tested compounds (±SD). The class given is cell-based. Summed up: as §1
Data set [5] relates to HepG2 (hepatocellular) carcinoma cell line. As to the kind of experiment: Anti-tumor properties, MTT. Conditions: Homo sapiens; for activity at 100 µM: read-out: Percentage growth of tumor cell lines treated with the tested compounds (±SD). Format: cell-based. An outline of the steps:
as §1

The subject of data set [6] is Staphylococcus aureus ATCC25923. Description: Antimicrobial MIC, agar dilution.
Data set [7] deals with Candida albicans (local isolate). As to the kind of experiment: Antimicrobial MIC, agar dilution. The settings on record: Candida albicans, read-out: Minimum inhibitory concentration (MIC).
The subject of data set [8] is Salmonella typhi ATCC19430. As to the kind of experiment: Antimicrobial MIC, agar dilution. Format: cell-based. The settings on record: Salmonella enterica, read-out: Minimum inhibitory concentration (MIC).
A further data set deals with gastric mucosa. Description: Ulcerogenic liability (ulcer index). Format: in vivo, albino mice. The procedure: The ulcerogenic liability was investigated in albino mice using the standard method. […] The animals were fasted 18 h before drug administration. […] The control group animals were given saline solution only with few drops of Tween 80. […] The gastric mucosa was examined with a magnifying lens (10×) for the presence of lesions and erosions.
1. percentage incidence of ulcer divided by 10;
2. average number of ulcers per stomach; and
3. average severity of ulcers;

Another data set deals with MCF-7 cells. Description: Effect on doxorubicin induced cytotoxicity (MTT). Conditions: for viability at 100 µM: Homo sapiens, MCF7, 48 h; for Percentage of viable cells MCF-7 (average ± SD): 10 μM DOX in combination with 100 μM curcumin derivative. An outline of the steps:
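MCF-7 cells were exposed for 48 hr to 100 μM curcumin derivative alone or combined with 10 μM doxorubicin. Controls got medium, DMSO vehicle, or vehicle+doxorubicin. Percent viable cells was read by MTT assay.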

In data set [9] the test system is lipopolysaccharide-stimulated peritoneal macrophages. Description: Production of nitric oxide by lipopolysaccharide-stimulated peritoneal macrophages (Greiss reagent). Format: cell-based. Set-up: Potency (%): % inhibition of nitric oxide production relative to lipopolysaccharide-stimulated macrophages: concentration or dose not given beside the values. The settings on record: LPS-stimulated peritoneal macrophages; for Nitric oxide (nitrite) concentration, μM (average ± SD): 24 h, nitrite by Greiss reagent. Summed up: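 Macrophages in nitrite-free medium with 0.1% BSA were stimulated with LPS at 0.5–10 ng/ml, some wells also receiving epinephrine, norepinephrine or dopamine at […], for 24 h at 37° C. Nitrite in supernatants was measured with Greiss reagent, 15 min at room temperature, absorbance 532 nm.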

In data set [10] the test system is PHA-stimulated splenocytes. Description: Proliferative response of PHA-stimulated splenocytes (MTT assay). The class given is cell-based. The settings on record: PHA 5 μg/ml, 72 hr; compounds at 5 μM (method says 10 μM); ratio of O.D. versus vehicle control. An outline of the steps:
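Freshly prepared splenocytes (1×10^6 cells/well) were cultured for 72 h at 37° C with compound at 10 μM final, with or without PHA (5 μg/ml). Viability was read by MTT (4 h), with absorbance at 570 nm against 690 nm reference. Stimulation index is the OD ratio of treated versus vehicle cultures.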

Setting [11] is: ATCC19615, 18 h, read-out: Minimum inhibitory concentration (MIC).
Where [12] appears, read: ATCC19615, read-out: Minimum inhibitory concentration (MIC).
The mark [13] stands for this setting: ATCC27853, 18 h, read-out: Minimum inhibitory concentration (MIC).
[14] abbreviates: ATCC27853, read-out: Minimum inhibitory concentration (MIC).
Where [15] appears, read: ATCC25923, 18 h, read-out: Minimum inhibitory concentration (MIC).
[16] abbreviates: ATCC25923, read-out: Minimum inhibitory concentration (MIC).
Setting [17] is: both, albino, mouse, in vivo, po, 10 mg/kg, 3 days.
The mark [18] stands for this setting: orally, three successive days, 10 mg/kg indomethacin mol equivalent.
Setting [19] is: orally, three successive days, 10 mg/kg indomethacin mol equivalent, 6 animals per group.
Setting [20] is: sum of the three values, orally, three successive days, 10 mg/kg indomethacin mol equivalent.
The mark [21] stands for this setting: read-out: Percentage of viable cells MCF-7 (average ± SD).

As for `COc1cc(/C=C/C(=O)CC(=O)/C=C/c2ccc(O)c(OC)c2)ccc1O` [Curcumin, (1E,6E)-1,7-bis(4-hydroxy-3-methoxyphenyl)hepta-1,6-diene-3,5-dione], the MIC came out at 0.125 µg/mL in [1] (setting [11]); 0.339 µM in data set [1] (setting [12]); 0.125 µg/mL in [2] (setting [13]); 0.339 µM in data set [2] (setting [14]); 0.125 µg/mL in data set [6] (setting [15]); 0.339 µM in data set [6] (setting [16]). For the same compound, the MIC in data set [7] (18 h) worked out at 0.125 µg/mL; in [7] it was 0.339 µM; in [8] (18 h), 0.125 µg/mL; in [8], 0.339 µM. The IC50 (as a rule, the point on the concentration scale where inhibition reaches its midpoint) in [3] (MCF7, 72 h) was 16 µM; in [5] (HepG2, 72 h), 38 µM. Further, the activity at 100 µM in [3] (MCF7, 72 h) was 4.6 ± 0.2%; in data set [4] (HCT-116, 72 h), 2.4 ± 3.4%; in data set [5] (HepG2, 72 h), 0.4%. For the same compound, in the data set on gastric mucosa (setting [17]), the “% Incidence of ulcer divided by 10” value is recorded as 3.33. For the same compound, the “Average of ulcer number” value in the data set with gastric mucosa (setting [17]) was 0.33. Besides, the “Average severity of ulcer” value in the data set with gastric mucosa (setting [17]) is listed as 0.33. Besides, in the data set with gastric mucosa (setting [17]), the “Number of animals with ulcer” value is listed as 2/6. In addition, the Ulcer index with gastric mucosa (setting [17]) was determined as 3.99. Besides, the viability at 100 µM with MCF-7 cells (read-out: Percentage of viable cells MCF-7 (average ± SD), 0 μM DOX, 100 μM curcumin derivative alone, 48 hr) stood at 10.8 ± 4.7%; with MCF-7 cells (read-out: Percentage of viable cells MCF-7 (average ± SD), 10 μM DOX in combination with 100 μM curcumin derivative, 48 hr), 3.16 ± 1.62%. For the same compound, in data set [9], the “Potency (%): % inhibition of nitric oxide production relative to lipopolysaccharide-stimulated macrophages” value is given as 37.11%. Also, in data set [9], the “Nitric oxide (nitrite) concentration, μM (average ± SD)” value (“Nitric oxide … (average ± SD)” for short) was found to be 17.18 ± 0.65 µM. Further, the “Stimulation Index (average ± SD)” value in data set [10] worked out at 1.52 ± 0.10.

Take `COc1cc(/C=C/C(=O)CC(=O)/C=C/c2ccc(OC(=O)[C@H](CCSC)NC(=O)OCc3ccccc3)c(OC)c2)ccc1OC(=O)[C@H](CCSC)NC(=O)OCc1ccccc1` [Cbz-Met-Cur, ((1E,6E)-3,5-dioxohepta-1,6-diene-1,7-diyl)bis(2-methoxy-4,1-phenylene) (2S,2′S)-bis(2-(((benzyloxy)carbonyl)amino)-4-(methylthio)butanoate)]: the MIC worked out at 0.125 µg/mL in data set [1] (setting [11]); 0.139 µM in data set [1] (setting [12]); 0.125 µg/mL in data set [2] (setting [13]); 0.139 µM in [2] (setting [14]); 0.125 µg/mL in data set [6] (setting [15]); 0.139 µM in data set [6] (setting [16]). Moreover, the MIC in data set [7] (18 h) came to 2 µg/mL; in data set [7], 2.23 µM; in [8] (18 h), 0.125 µg/mL; in data set [8] it was 0.139 µM. Also, the activity at 100 µM in data set [3] (MCF7, 100 μM, 72 h) was found to be 71%; in data set [4] (HCT-116, HCT116, 100 μM, 72 h), 85.6 ± 2.4%; in data set [5] (HepG2, 100 μM, 72 h), 85.4 ± 2.4%. For the same compound, the “% Incidence of ulcer divided by 10” value with gastric mucosa (setting [18]) was found to be 3.33. Further, the “Average of ulcer number” value in the data set with gastric mucosa (setting [18]) was determined as 0.33. For the same compound, the “Average severity of ulcer” value in the data set on gastric mucosa (setting [18]) was 0.33. For the same compound, the “Number of animals with ulcer” value in the data set with gastric mucosa (setting [19]) was 2/6. Also, in the data set with gastric mucosa (setting [20]), the Ulcer index is given as 3.99. Also, the “Percentage of viable cells MCF-7 (average ± SD)” value (shortened to “Percentage … (average ± SD)”) with MCF-7 cells (48 hr) was determined as 49.74 ± 0.33. Further, in the data set with MCF-7 cells (setting [21]), the viability at 100 µM stood at 96.3 ± 3.61%. For the same compound, in data set [9], the “Potency (%): % inhibition of nitric oxide production relative to lipopolysaccharide-stimulated macrophages” value was determined as 44.44%. Besides, the “Nitric oxide … (average ± SD)” value in data set [9] is 15.17 ± 2.30 µM. In addition, the “Stimulation Index (average ± SD)” value in data set [10] is on record as 1.22 ± 0.29.

Consider `COc1cc(/C=C/C(=O)CC(=O)/C=C/c2ccc(OC(=O)CNC(=O)OCC3c4ccccc4-c4ccccc43)c(OC)c2)ccc1OC(=O)CNC(=O)OCC1c2ccccc2-c2ccccc21` [Fmoc-Gly-Cur, ((1E,6E)-3,5-dioxohepta-1,6-diene-1,7-diyl)bis(2-methoxy-4,1-phenylene) bis(2-((((9H-fluoren-9-yl)methoxy)carbonyl)amino)acetate)], for which the MIC came out at 1 µg/mL in data set [1] (setting [11]); 1.08 µM in [1] (setting [12]); 1 µg/mL in data set [2] (setting [13]); 1.08 µM in [2] (setting [14]); 1 µg/mL in [6] (setting [15]); 1.08 µM in [6] (setting [16]). The MIC in data set [7] (18 h) is 2 µg/mL; in [7] it was 2.16 µM; in [8] (18 h) it was 1 µg/mL; in [8] it was 1.08 µM. In addition, the activity at 100 µM in [3] (MCF7, 100 μM, 72 h) was 87 ± 1.5%; in data set [4] (HCT-116, HCT116, 100 μM, 72 h), 95.8 ± 6.7%; in [5] (HepG2, 100 μM, 72 h) it was 82.1 ± 7%. In addition, the “% Incidence of ulcer divided by 10” value in the data set on gastric mucosa (setting [18]) was 0. The “Average of ulcer number” value with gastric mucosa (setting [18]) turned out to be 0. Moreover, the “Average severity of ulcer” value with gastric mucosa (setting [18]) was found to be 0. Besides, in the data set with gastric mucosa (setting [19]), the “Number of animals with ulcer” value is listed as 0/6. The Ulcer index in the data set on gastric mucosa (setting [20]) worked out at 0. Further, the “Percentage … (average ± SD)” value with MCF-7 cells (48 hr) stood at 30.35. Also, the viability at 100 µM in the data set on MCF-7 cells (setting [21]) amounted to 98.4 ± 1.46%. In addition, the “Potency (%): % inhibition of nitric oxide production relative to lipopolysaccharide-stimulated macrophages” value in data set [9] is 31.43%. For the same compound, the “Nitric oxide … (average ± SD)” value in data set [9] worked out at 18.73 ± 1.29 µM. In addition, the “Stimulation Index (average ± SD)” value in data set [10] is given as 1.76 ± 0.20.

`COc1cc(/C=C/C(=O)CC(=O)/C=C/c2ccc(OC(=O)CNC(=O)OCc3ccccc3)c(OC)c2)ccc1OC(=O)CNC(=O)OCc1ccccc1` [Cbz-Gly-Cur, ((1E,6E)-3,5-dioxohepta-1,6-diene-1,7-diyl)bis(2-methoxy-4,1-phenylene) bis(2-(((benzyloxy)carbonyl)amino)acetate)]: the MIC came to 0.125 µg/mL in data set [1] (setting [11]); 0.166 µM in data set [1] (setting [12]); 1 µg/mL in data set [2] (setting [13]); 1.33 µM in data set [2] (setting [14]); 0.125 µg/mL in [6] (setting [15]); 0.166 µM in [6] (setting [16]). Further, the MIC in data set [7] (18 h) is 0.5 µg/mL; in data set [7], 0.666 µM; in data set [8] (18 h) it was 0.5 µg/mL; in [8], 0.666 µM. Moreover, the activity at 100 µM in data set [3] (MCF7, 100 μM, 72 h) came out at 60 ± 2.7%; in data set [4] (HCT-116, HCT116, 100 μM, 72 h), 88.1 ± 2.6%; in data set [5] (HepG2, 100 μM, 72 h) it was 79.8 ± 8.8%. In the data set on MCF-7 cells (48 hr), the “Percentage … (average ± SD)” value is on record as 45.44 ± 1.88. Besides, in the data set on MCF-7 cells (setting [21]), the viability at 100 µM turned out to be 97.4 ± 5.3%. Further, the “Potency (%): % inhibition of nitric oxide production relative to lipopolysaccharide-stimulated macrophages” value in data set [9] is 10.11%. For the same compound, in data set [9], the “Nitric oxide … (average ± SD)” value was 24.55 ± 0.66 µM. The “Stimulation Index (average ± SD)” value in [10] amounted to 2.64 ± 0.10.
